How the values were obtained:
DIPGX37 = H3.3 K27M diffuse intrinsic pontine glioma line; assay: growth inhibition relative to DMSO (0) and positive control (1) (fraction); higher = more growth inhibition
Protocol: (§1)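 Paxalisib (GDC0084) x mirdametinib (PD0325901) dose matrix on pHGG cell lines and astrocyte controls, 7 days, adherent 384-well. CellTiter-Glo RLU was normalised (no log2) to fractional activity between DMSO (0) and the positive control (1). Each combination was tested in two plate orientations.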

DIPGX29 = H3.3 K27M diffuse intrinsic pontine glioma line; assay: as above
Protocol: as §1

O=C(NOC[C@H](O)CO)c1ccc(F)c(F)c1Nc1ccc(I)cc1F + CC1(C)OCCn2c1nc1c(N3CCOCC3)nc(-c3cnc(N)nc3)nc12 [GDC0084]
growth inhibition
Conditions | compound 1 concentration 0.009766 µM | compound 1 concentration 0.01953 µM | compound 1 concentration 0.03906 µM | compound 1 concentration 0.07812 µM | compound 1 concentration 0.15625 µM | compound 1 concentration 0.3125 µM | compound 1 concentration 0.625 µM | compound 1 concentration 1.25 µM | compound 1 concentration 5 µM | compound 1 concentration 20 µM
DIPGX29, compound 2 concentration 0.03906 µM | 0.638 | 0.646 | 0.648 | 0.701 | 0.69 | 0.738 | 0.748 | 0.755 | 0.895 | 0.958
DIPGX29, compound 2 concentration 0.07812 µM | 0.15 | 0.207 | 0.157 | 0.241 | 0.208 | 0.306 | 0.424 | 0.498 | 0.796 | 0.919
DIPGX29, compound 2 concentration 0.15625 µM | 0.213 | 0.194 | 0.204 | 0.242 | 0.215 | 0.307 | 0.451 | 0.518 | 0.813 | 0.909
DIPGX29, compound 2 concentration 0.3125 µM | 0.306 | 0.272 | 0.343 | 0.357 | 0.359 | 0.415 | 0.506 | 0.652 | 0.859 | 0.947
DIPGX29, compound 2 concentration 0.625 µM | 0.411 | 0.38 | 0.431 | 0.462 | 0.487 | 0.495 | 0.632 | 0.697 | 0.917 | 0.981
DIPGX29, compound 2 concentration 1.25 µM | 0.531 | 0.526 | 0.609 | 0.603 | 0.627 | 0.625 | 0.79 | 0.803 | 0.952 | 0.985
DIPGX29, compound 2 concentration 5 µM | 0.911 | 0.936 | 0.919 | 0.945 | 0.966 | 0.973 | 0.966 | 0.993 | 0.999 | 1
DIPGX29, compound 2 concentration 20 µM | 0.933 | 0.947 | 0.948 | 0.968 | 0.964 | 0.984 | 0.989 | 0.996 | 1 | 1
DIPGX37, compound 2 concentration 0.03906 µM | -0.0653 | -0.109 | 0.00889 | 0.0388 | 0.199 | 0.341 | 0.484 | 0.642 | 0.948 | 0.988
DIPGX37, compound 2 concentration 0.07812 µM | 0.157 | 0.133 | 0.163 | 0.275 | 0.352 | 0.487 | 0.599 | 0.725 | 0.959 | 0.993
DIPGX37, compound 2 concentration 0.15625 µM | 0.264 | 0.281 | 0.316 | 0.412 | 0.485 | 0.618 | 0.728 | 0.829 | 0.983 | 0.997
DIPGX37, compound 2 concentration 0.3125 µM | 0.446 | 0.454 | 0.5 | 0.586 | 0.657 | 0.767 | 0.859 | 0.926 | 0.997 | 1
DIPGX37, compound 2 concentration 0.625 µM | 0.589 | 0.585 | 0.62 | 0.71 | 0.777 | 0.871 | 0.937 | 0.97 | 1 | 1
DIPGX37, compound 2 concentration 1.25 µM | 0.75 | 0.791 | 0.815 | 0.864 | 0.908 | 0.951 | 0.976 | 0.996 | 1 | 1
DIPGX37, compound 2 concentration 5 µM | 0.965 | 0.975 | 0.988 | 0.995 | 0.999 | 1 | 1 | 1 | 1 | 1
DIPGX37, compound 2 concentration 20 µM | 0.996 | 0.998 | 0.998 | 0.996 | 0.998 | 0.997 | 0.997 | 0.997 | 0.998 | 1

CC1(C)OCCn2c1nc1c(N3CCOCC3)nc(-c3cnc(N)nc3)nc12 [GDC0084] + O=C(NOC[C@H](O)CO)c1ccc(F)c(F)c1Nc1ccc(I)cc1F [PD0325901]
growth inhibition
Conditions | compound 1 concentration 0.009766 µM | compound 1 concentration 0.01953 µM | compound 1 concentration 0.03906 µM | compound 1 concentration 0.07812 µM | compound 1 concentration 0.15625 µM | compound 1 concentration 0.3125 µM | compound 1 concentration 0.625 µM | compound 1 concentration 1.25 µM | compound 1 concentration 5 µM | compound 1 concentration 20 µM
DIPGX29, compound 2 concentration 0.03906 µM | 0.0494 | 0.0257 | 0.0988 | 0.197 | 0.244 | 0.304 | 0.508 | 0.598 | 0.891 | 0.96
DIPGX29, compound 2 concentration 0.07812 µM | 0.246 | 0.221 | 0.24 | 0.295 | 0.368 | 0.426 | 0.565 | 0.653 | 0.915 | 0.964
DIPGX29, compound 2 concentration 0.15625 µM | 0.138 | 0.16 | 0.18 | 0.286 | 0.308 | 0.402 | 0.515 | 0.704 | 0.92 | 0.97
DIPGX29, compound 2 concentration 0.3125 µM | 0.198 | 0.252 | 0.293 | 0.316 | 0.389 | 0.507 | 0.616 | 0.696 | 0.949 | 0.981
DIPGX29, compound 2 concentration 0.625 µM | 0.331 | 0.369 | 0.463 | 0.439 | 0.481 | 0.54 | 0.619 | 0.781 | 0.967 | 0.993
DIPGX29, compound 2 concentration 1.25 µM | 0.511 | 0.539 | 0.543 | 0.583 | 0.62 | 0.67 | 0.806 | 0.869 | 0.983 | 0.999
DIPGX29, compound 2 concentration 5 µM | 0.801 | 0.807 | 0.824 | 0.837 | 0.855 | 0.88 | 0.924 | 0.956 | 0.997 | 0.997
DIPGX29, compound 2 concentration 20 µM | 0.903 | 0.914 | 0.9 | 0.927 | 0.923 | 0.969 | 0.97 | 0.989 | 1 | 1
DIPGX37, compound 2 concentration 0.03906 µM | -0.147 | -0.0916 | -0.0557 | 0.033 | 0.217 | 0.429 | 0.588 | 0.762 | 0.979 | 1
DIPGX37, compound 2 concentration 0.07812 µM | -0.0133 | 0.012 | 0.0971 | 0.209 | 0.356 | 0.514 | 0.694 | 0.823 | 0.99 | 1
DIPGX37, compound 2 concentration 0.15625 µM | 0.0798 | 0.113 | 0.192 | 0.297 | 0.433 | 0.58 | 0.744 | 0.879 | 0.999 | 1
DIPGX37, compound 2 concentration 0.3125 µM | 0.186 | 0.271 | 0.3 | 0.445 | 0.556 | 0.699 | 0.84 | 0.924 | 1 | 1
DIPGX37, compound 2 concentration 0.625 µM | 0.277 | 0.368 | 0.441 | 0.522 | 0.6 | 0.787 | 0.891 | 0.948 | 1 | 1
DIPGX37, compound 2 concentration 1.25 µM | 0.458 | 0.508 | 0.592 | 0.657 | 0.743 | 0.882 | 0.953 | 0.984 | 1 | 1
DIPGX37, compound 2 concentration 5 µM | 0.832 | 0.876 | 0.906 | 0.917 | 0.94 | 0.986 | 1 | 1 | 1 | 1
DIPGX37, compound 2 concentration 20 µM | 0.97 | 0.98 | 0.984 | 0.994 | 0.997 | 1 | 1 | 1 | 1 | 1
